Test [1] deals with T1, CXCR4 (Mus musculus, UniProt P70658).
T1 construct: from tissue; host or cells: live mice (C57Bl/6J for mobilization)
The experiment in a line: Asthma mouse model (OVA challenge). Format: in vivo. The following applies: mice, i.p., allergen challenge with OVA. The method, then:
Mice were sensitized by intraperitoneal (i.p.) injection on days 0, 1 and 2 of 50 μg ovalbumin (OVA, Sigma-Aldrich, A5503) adsorbed on 2 mg aluminium hydroxide (Sigma-Aldrich, 23918-6) in saline. Mice were challenged by intranasal (i.n.) instillation of 10 μg OVA in 25 μl saline (12.5 μl/nostril) or saline alone for control mice on days 5, 6 and 7 under anesthesia (50 mg/kg ketamine and 3.3 mg/kg xylazine, i.p.). the peptide of SEQ ID NO 16 or ALB409-423 in saline were administered i.p. (16 μmol/kg) two hours before each OVA challenge. Bronchoalveolar lavage (BAL) and differential cell counts were performed 24 h after the last OVA challenge as previously reported in (Rebber et al., 2012).

The target of test [2] is T2, CXCR4 (Homo sapiens, UniProt P61073).
T2 construct: expressed in transfected cells
Put plainly: Competition with CXCL12 binding to CXCR4 (real-time fluorescence, eGFP-CXCR4 cells). The method, then:
Anti-human CXCR4 (clone 12G5, IgG2a) or anti-human CXCR7 (clone 9C4) monoclonal antibodies (mAbs) were purchased from R&D Systems (Minneapolis, Minn.). […] The human chemokines CXCL12 and CXCL12-TexasRed were synthesized as described (Valenzuela-Fernandez, et al. 2001). The human chemokine CXCL11 was purchased from Clinisciences SAS (France).
Experiments were performed using cells stably expressing eGFP-CXCR4, suspended in HEPES-bovine serum albumin buffer (10 mM HEPES, 137.5 mM NaCl, 1.25 mM MgCl2, 1.25 mM CaCl2, 6 mM KCl, 10 mM glucose, 0.4 mM NaH2PO4, 0.1% bovine serum albumin (w/v), pH 7.4) (typically at 10^6 cells/mL). Time-based recordings of the fluorescence emitted at 510 nm (excitation at 470 nm) were performed at 21° C. using a spectrofluorimeter and sampled every 0.3 s. Fluorescence binding measurements were initiated by adding at 30 s 100 nM of CXCL12-TR to the 1 mL cell suspension. For competition experiments, EGFP-CXCR4 expressing cells were preincubated for 10 min in the absence or presence of various concentrations of unlabelled drugs. Then, CXCL12-TR (100 nM) was added and fluorescence was recorded until equilibrium was reached (300 s). Data were analyzed using Kaleidagraph 3.08 software (Synergy Software, Reading, Pa., USA).

Another test has as its system X4 HIV-1 strains. The method, then:
(§1) Antiviral screening was performed using the X4 HIV-1 NL4-3 molecular clone.
(§2) HIV-1, HIV-2 and SIV molecular clones differing in coreceptor tropism were generated by transient transfection of 293T cells with proviral DNA by the calcium phosphate method (CalPhos™ Mammalian Transfection Kit, Clon-tech). After overnight incubation, the transfection mixture was replaced by DMEM medium supplemented with 10% FCS, and virus stocks were harvested 48 hrs post-transfection. Subsequently, the culture supernatant was centrifuged for 5 min at 3000 rpm to remove cell debris. The resulting virus stock was quantified by p24 (HIV) or p27 (SIV) antigen ELISA. Virus stocks were either used immediately or stored in aliquots at −80° C.
(§3) TZM-bl reporter cells containing the LacZ reporter gene under the control of the HIV-1 promoter were seeded in 96-well F-bottom microtiter plates (Greiner Bio-One). On the following day, the cells were preincubated with various dilutions of the peptide of SEQ ID NO 16 or its derivatives for 1 hour and subsequently infected with HIV-1, HIV-2, and SIV. Infection rates were determined after 2 days using the one-step Tropix Gal-Screen Kit, as recommended by the manufacturer.

A further test has as its system X4 tropic HIV-1 NL4-3. The following applies: blocking X4 tropic HIV-1 NL4-3 infection. On the procedure:
as §1, §2, §3

No end group written: not given here.

T1 sequence (P70658 whole entry): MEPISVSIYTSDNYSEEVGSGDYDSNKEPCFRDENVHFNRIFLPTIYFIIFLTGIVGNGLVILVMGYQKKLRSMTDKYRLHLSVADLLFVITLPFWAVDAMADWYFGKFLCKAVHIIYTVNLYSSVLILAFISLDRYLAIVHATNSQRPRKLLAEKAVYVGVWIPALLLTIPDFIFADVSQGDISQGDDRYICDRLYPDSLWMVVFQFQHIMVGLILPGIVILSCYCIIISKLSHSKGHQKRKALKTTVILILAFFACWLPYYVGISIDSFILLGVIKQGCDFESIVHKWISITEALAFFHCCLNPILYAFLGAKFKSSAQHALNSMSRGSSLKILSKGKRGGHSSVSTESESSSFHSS
T2 sequence (P61073 whole entry): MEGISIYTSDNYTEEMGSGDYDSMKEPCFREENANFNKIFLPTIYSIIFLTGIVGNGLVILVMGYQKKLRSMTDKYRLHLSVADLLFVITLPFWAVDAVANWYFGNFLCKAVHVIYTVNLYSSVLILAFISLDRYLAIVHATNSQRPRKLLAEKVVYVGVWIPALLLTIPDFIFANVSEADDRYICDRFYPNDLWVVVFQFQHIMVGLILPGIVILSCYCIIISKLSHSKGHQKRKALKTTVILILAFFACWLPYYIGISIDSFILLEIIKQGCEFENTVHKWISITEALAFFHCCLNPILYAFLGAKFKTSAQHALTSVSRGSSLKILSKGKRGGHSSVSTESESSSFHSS

Consider “ALB409-423: ALB409-423, which does not interact with CXCR4; control peptide in the asthma mouse model (VRYTKKVPQVSTPTL) [reference compound]”, for which, in the test with CXCR4 [1], the “CXCR4-dependent infiltration of neutrophils, lymphocytes and eosinophils into the airways” value is given as “no significant effects”; the infiltration of macrophages result is “no significant effects”. For the same substance, the “interaction with CXCR4” value with CXCR4 [2] is on record as “does not interact”.
As for “HSA precursor: highly abundant HSA precursor; the most abundant protein in human plasma, of which the SEQ ID NO 16 peptide is a fragment”, the antiretroviral effect entry in the test with X4 HIV-1 strains was “no antiretroviral effect”.
As for LVRYAKKV [408-415-T412A, LVRYAKKV], 11.2 µM corresponded to half-maximal inhibition in the test on X4 tropic HIV-1 NL4-3 (IC50).
Take LVRYTKKV [Derivative 408-415, LVRYTKKV]: the IC50 (as a rule, the concentration that inhibits the measured activity by half) in the test on X4 tropic HIV-1 NL4-3 stood at 25.7 µM.
In the test with X4 tropic HIV-1 NL4-3, “LVRYTKKVPQ [Derivative 408-417, LVRYTKKVPQ]” showed an IC50 of 19.8 µM.
“LVRYTKKVPQV [Derivative 408-418, LVRYTKKVPQV]” returned a 50% inhibitory concentration (IC50) in the test with X4 tropic HIV-1 NL4-3 of 26.8 µM.
As for “LVRYTKKVPQVS [Derivative 408-419, LVRYTKKVPQVS]”, the IC50 with X4 tropic HIV-1 NL4-3 amounted to 5.49 µM.
As to “LVRYTKKVPQVST [Derivative 408-420, LVRYTKKVPQVST]”, the IC50 with X4 tropic HIV-1 NL4-3 was determined as 15.3 µM.
On to “LVRYTKKVPQVSTP [Derivative 408-421, LVRYTKKVPQVSTP]”, for which, in the test on X4 tropic HIV-1 NL4-3, half-maximal inhibition (IC50) required 14 µM.
“LVRYTKKVPQVSTPT [Derivative 408-422, LVRYTKKVPQVSTPT]” displayed a concentration for half-maximal inhibition (IC50) with X4 tropic HIV-1 NL4-3 of 13.4 µM.

Source of the values: patent US10294272B2, “Peptides with antagonistic activities against natural CXCR4” (Pharis Biotec GmbH, priority 2013, dated 2019).
